Read-outs that look alike come from different tables or passages of the source. Where a SMILES comes first, the peptide text is derived from it. [ ]: non-standard residue; d: D form. Sar = CNCC(=O)O

For series [1], the system named is Caco-2 cell monolayers.
Protocol: (§1) Uptake and permeability of each compound was measured in the apical-to-basolateral direction, with and without vehicle.
(§2) Each compound was tritiated. ^14C-mannitol was used as an evaluation of monolayer/cell integrity (i.e. as a low uptake/permeability marker).
(§3) Uptake and Permeability Assessments. Compound cellular uptake into and permeability across Caco-2 monolayers was measured.
(§4) Monolayer integrity was monitored using ^14C-mannitol permeability. Mannitol uptake was also studied.
(§5) ^14C-mannitol and ^3H-drugs were quantified by liquid scintillation counting. For uptake studies, at designated time points (10 sec, 60 sec, and 5 min), the donor solution was aspirated off. The cell monolayer was washed twice with ice cold HBSS to remove any residual binding and then dissolved in 1 ml of the cell solubilizing agent, Solvable®. The cell lysate (0.5 ml) was added to 5 ml scintillation cocktail (Econosafe®) and counted on liquid scintillation counter (Beckman LS5801, Columbia, Md.). For permeability studies, 0.5 ml of received solution was added to 5 ml scintillation cocktail (Econosafe®) and counted on liquid scintillation counter.
(§6) Permeability (3) in each experiment was calculated (FIG. 8-12) using eq 1: [formula] where P is permeability, dM/dt is rate of drug mass accumulation (i.e., radioactivity) in receiver compartment, A is area, and Cd is donor drug concentration (i.e., radioactivity). […] Permeability is an absolute measure (units of cm/Sec or velocity) and can be determined even though the absolute drug concentrations were not known.
In series [2] the test system is Caco-2 cell monolayers. The source holds these as a separate data set.
Protocol: as §1, §2, §3, §4, §5
(§7) Since saturated solutions of unknown concentration of drugs were used, absolute uptake could not be calculated.
Series [3] concerns Caco-2 cell monolayers. Description: Caco-2 permeability, apical to basolateral, with and without vehicle. As to conditions: no vehicle vs with vehicle, 5 min period (FIG. 8-12). For orientation: Caco-2 monolayers are a common model of the intestinal barrier.
Protocol: as §1, §2, §3, §4, §5, §6
Series [4] concerns Caco-2 cell monolayers. Description: Cellular uptake of tritiated drugs and 14C-mannitol into Caco-2 monolayers, with and without vehicle. As to conditions: saturated solutions, AES-14 / blank AES-14 vs HBSS, up to 5 min.
Protocol: as §1, §2, §3, §4, §5, §7

`NC(=O)C[C@H](N)C(=O)O` [L-asparagine]: the “effect of Aesgen-14 vehicle on Caco-2 permeability (in words)” value (from here on “effect of Aesgen-14 vehicle”) in series [1] is “no effect”. Turning to `NC(=O)CC[C@H](N)C(=O)O` [L-glutamine], the “enhancement of cellular uptake by vehicle” value in series [2] is recorded as “To perhaps a lesser extent, vehicle enhanced”. For the same compound, the “effect of Aesgen-14 vehicle” value in series [1] is “no effect”. `CN(CC(=O)O)C(=O)CN` [glycylsarcosine] (H-Gly-[Sar]-OH): the “effect of Aesgen-14 vehicle” value in series [3] is on record as “no effect”. Besides, the “enhancement of cellular drug uptake by vehicle (relative uptake vehicle vs HBSS)” value in series [4] was “about four-fold”. As for `OC[C@@H](O)[C@@H](O)[C@H](O)[C@H](O)CO` [Mannitol, mannitol], in series [2], the “effect of vehicle on mannitol relative uptake (in words)” value was “no effect”. In addition, the “effect of vehicle on mannitol permeability (in words)” value in series [1] is “no effect”.
